One may read the ED50 as the midpoint of the dose-response relation.

The text below walks through data of patent publication US6087355A, “Cephalosporin antibiotics” (Microcide Pharmaceuticals, Inc., priority 1996, dated 2000).

Assay [1] concerns S. aureus Col(Meth^R)(lac^-). Description: In vitro MIC, agar dilution. The class given is cell-based. The conditions noted are these: Staphylococcus aureus, read-out: minimum inhibitory concentration (MIC). A digest of the protocol:
(§1)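 Two-fold dilutions (128 to ≤0.25 μg/mL, in duplicate) were poured into Mueller-Hinton agar. Log-phase broth cultures were spot-inoculated at about 10^4 cfu per spot and incubated 35-36°C for 16-20 hours; the MIC was the lowest concentration inhibiting growth. Col is a high-level PBP2a producer; Col 8A is its isogenic PBP2a-lacking partner.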
(In agar dilution, organisms are placed on agar that contains the substance at set levels.)

Assay [2] concerns S. aureus Col8A(Meth^S)(lac^-). Nature of the assay: In vitro MIC, agar dilution. The format is cell-based. The conditions noted are these: Staphylococcus aureus; S. aureus Col8A(Meth^S)(lac^-); read-out: minimum inhibitory concentration (MIC). A digest of the protocol: as §1
The subject of a further assay is MRSA strains. The conditions noted are these: in words, reported in background; cited from earlier work.
In assay [3] the test system is S. haemolyticus 05(Meth^R). Nature of the assay: In vitro MIC, agar dilution. To be noted: Staphylococcus haemolyticus, read-out: minimum inhibitory concentration (MIC). The class given is cell-based. A digest of the protocol: (§2)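 Agar dilution, Mueller-Hinton; drug 128 → ≤0.25 μg/mL two-fold, duplicates. Inoculum ~10^4 cfu/spot (log phase). 35-36 °C, 16-20 h. MIC = lowest conc. with no growth.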

Another assay concerns S. aureus ATCC 29213. Nature of the assay: In vitro MIC, agar dilution. The class given is cell-based. The conditions noted are these: Staphylococcus aureus, ATCC29213, read-out: minimum inhibitory concentration (MIC). A digest of the protocol: as §2
For assay [4], the system named is S. aureus Spain #356(Meth^R). Description: In vitro MIC, agar dilution. The format is cell-based. The conditions noted are these: Staphylococcus aureus, read-out: minimum inhibitory concentration (MIC). A digest of the protocol: as §2
The next assay deals with E. faecium ATCC 35667. Description: In vitro MIC, agar dilution. The format is cell-based. To be noted: Enterococcus faecium, ATCC35667, read-out: minimum inhibitory concentration (MIC). A digest of the protocol: as §2
For the next assay, the system named is E. faecalis VanB(Van^R). Description: In vitro MIC, agar dilution. The format is cell-based. The conditions noted are these: Enterococcus faecalis, read-out: minimum inhibitory concentration (MIC). A digest of the protocol:
as §2

The test system of assay [5] is S. aureus ATCC 33593(Meth^R). Description: In vitro MIC, agar dilution. To be noted: Staphylococcus aureus, ATCC33593, read-out: minimum inhibitory concentration (MIC). The class given is cell-based. A digest of the protocol: as §2
The subject of assay [6] is S. aureus strain ATCC 13709 (methicillin-susceptible). Nature of the assay: Murine model for lethal bacteremic peritonitis. The class given is in vivo, female Swiss-Webster mice. The conditions noted are these: Staphylococcus aureus, ATCC13709, SC, 72 h. A digest of the protocol: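 Female Swiss-Webster mice were challenged IP with an LD100 inoculum in 7% hog gastric mucin, then given test drug subcutaneously in twofold increments (0.01–512 mg/kg) as two equal doses at challenge and 2 h later, 10 mice per group. Survival was scored at 72 h; PD50 (total mg/kg) was derived by probit.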

Converted amounts (≈) assume the structure as drawn.

`C[C@@H](O)[C@H]1C(=O)N2C(C(=O)O)=C(SCCN=CN)C[C@H]12` [Imipenem, imipenem, reference compound]: the MIC in assay [1] was 32 µg/mL (≈ 107 µM); in assay [2] it was ≤ 0.25 µg/mL; in assay [3], 64 µg/mL (≈ 214 µM); in the assay with S. aureus ATCC 29213, ≤ 0.25 µg/mL; in assay [4], 32 µg/mL (≈ 107 µM); with E. faecium ATCC 35667, 4 µg/mL (≈ 13.4 µM). Besides, the MIC with E. faecalis VanB(Van^R) was 0.5 µg/mL (≈ 1.67 µM); in assay [5] it was 32 µg/mL (≈ 107 µM). Besides, the “activity against MRSA strains” value in the assay on MRSA strains is “active against a few MRSA strains”. Besides, the responders at 0.039 mg/kg in [6] (Dose 0.039 mg/kg, read-out: Survivors) came out at 30%. In [6] (Dose 0.078 mg/kg, read-out: Survivors), the responders at 0.078 mg/kg came out at 60%. In assay [6] (Dose 0.156 mg/kg, read-out: Survivors), the responders at 0.156 mg/kg amounted to 100%. In assay [6] (Dose 0.3125 mg/kg, read-out: Survivors), the responders at 0.3125 mg/kg was determined as 100%. Moreover, in [6] (Dose 0.625 mg/kg, read-out: Survivors), the responders at 0.625 mg/kg amounted to 100%. For the same molecule, the ED50 in assay [6] (two equal doses, IP challenge, read-out: ED50) was determined as 0.06 mg/kg.
